Test results from the kinase profiling compilation of Christmann-Franck et al. (2016).

What was measured:
Assay in all cases: KINOMEscan competition binding
Conditions in all cases: compound 10.0 µM
[1] = target: MAP3K11 (human) (UniProt Q16584)
[2] = target: DAPK2 (human) (UniProt Q9UIK4)
[3] = target: TNK1 (human) (UniProt Q13470)
[4] = target: TGFBR2 (human) (UniProt P37173)
[5] = target: MINK1 (human) (UniProt Q8N4C8)
[6] = target: FRK (human) (UniProt P42685)
[7] = target: PAK6 (human) (UniProt Q9NQU5)
[8] = target: STK25 (human) (UniProt O00506)
[9] = target: RIPK4 (human) (UniProt P57078)
[10] = target: CAMK2G (human) (UniProt Q13555)
[11] = target: PAK1 (human) (UniProt Q13153)
[12] = target: LATS2 (human) (UniProt Q9NRM7)
[13] = target: ACVR2B (human) (UniProt Q13705)
[14] = target: CHEK2 (human) (UniProt O96017)
[15] = target: EPHA4 (human) (UniProt P54764)
[16] = target: RPS6KA6 KD2 (human) (UniProt Q9UK32)
[17] = target: DAPK1 (human) (UniProt P53355)
[18] = target: CDK3 (human) (UniProt Q00526)
[19] = target: TXK (human) (UniProt P42681)
[20] = target: CDC2L2 (human) (UniProt Q9UQ88)
[21] = target: STK10 (human) (UniProt O94804)
[22] = target: CIT (human) (UniProt O14578)
[23] = target: MAP3K5 (human) (UniProt Q99683)
[24] = target: RIOK1 (human) (UniProt Q9BRS2)
[25] = target: CDK9 (human) (UniProt P50750)
[26] = target: MAPK9 (human) (UniProt P45984)
[27] = target: MAPK1 (human) (UniProt P28482)
[28] = target: ADCK3 (human) (UniProt Q8NI60)
[29] = target: RIOK3 (human) (UniProt O14730)
[30] = target: EPHA5 (human) (UniProt P54756)
[31] = target: MAPK4 (human) (UniProt P31152)
[32] = target: PRKD1 (human) (UniProt Q15139)
[33] = target: JAK1 JH1 catalytic (human) (UniProt P23458)
[34] = target: MAP4K4 (human) (UniProt O95819)
[35] = target: LTK (human) (UniProt P29376)
[36] = target: PTK2B (human) (UniProt Q14289)
[37] = target: STK32B (human) (UniProt Q9NY57)
[38] = target: CSNK1G1 (human) (UniProt Q9HCP0)
[39] = target: CSNK1G3 (human) (UniProt Q9Y6M4)
[40] = target: RPS6KA3 KD1 (human) (UniProt P51812)

Chain of PAK6 (human) (Q9NQU5 whole entry, looked up): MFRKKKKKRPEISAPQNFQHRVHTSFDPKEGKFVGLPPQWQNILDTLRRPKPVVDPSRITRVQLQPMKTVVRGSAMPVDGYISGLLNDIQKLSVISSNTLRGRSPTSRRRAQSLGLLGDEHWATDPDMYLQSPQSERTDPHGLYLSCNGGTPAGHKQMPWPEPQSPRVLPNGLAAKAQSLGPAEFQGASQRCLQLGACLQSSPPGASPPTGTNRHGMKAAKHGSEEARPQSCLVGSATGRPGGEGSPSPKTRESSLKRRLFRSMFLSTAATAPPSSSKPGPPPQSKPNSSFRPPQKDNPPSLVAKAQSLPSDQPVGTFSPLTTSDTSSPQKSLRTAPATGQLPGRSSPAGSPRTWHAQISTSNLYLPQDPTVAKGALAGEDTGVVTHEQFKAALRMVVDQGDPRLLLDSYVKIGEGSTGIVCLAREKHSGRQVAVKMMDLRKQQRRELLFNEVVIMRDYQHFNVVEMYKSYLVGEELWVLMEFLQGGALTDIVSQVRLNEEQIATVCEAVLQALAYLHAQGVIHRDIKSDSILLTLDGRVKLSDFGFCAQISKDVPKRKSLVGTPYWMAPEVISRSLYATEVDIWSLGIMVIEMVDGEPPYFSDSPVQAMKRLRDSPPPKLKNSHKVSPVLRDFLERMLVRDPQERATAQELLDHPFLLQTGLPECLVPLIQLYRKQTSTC
Chain of DAPK1 (human) (P53355 whole entry, looked up): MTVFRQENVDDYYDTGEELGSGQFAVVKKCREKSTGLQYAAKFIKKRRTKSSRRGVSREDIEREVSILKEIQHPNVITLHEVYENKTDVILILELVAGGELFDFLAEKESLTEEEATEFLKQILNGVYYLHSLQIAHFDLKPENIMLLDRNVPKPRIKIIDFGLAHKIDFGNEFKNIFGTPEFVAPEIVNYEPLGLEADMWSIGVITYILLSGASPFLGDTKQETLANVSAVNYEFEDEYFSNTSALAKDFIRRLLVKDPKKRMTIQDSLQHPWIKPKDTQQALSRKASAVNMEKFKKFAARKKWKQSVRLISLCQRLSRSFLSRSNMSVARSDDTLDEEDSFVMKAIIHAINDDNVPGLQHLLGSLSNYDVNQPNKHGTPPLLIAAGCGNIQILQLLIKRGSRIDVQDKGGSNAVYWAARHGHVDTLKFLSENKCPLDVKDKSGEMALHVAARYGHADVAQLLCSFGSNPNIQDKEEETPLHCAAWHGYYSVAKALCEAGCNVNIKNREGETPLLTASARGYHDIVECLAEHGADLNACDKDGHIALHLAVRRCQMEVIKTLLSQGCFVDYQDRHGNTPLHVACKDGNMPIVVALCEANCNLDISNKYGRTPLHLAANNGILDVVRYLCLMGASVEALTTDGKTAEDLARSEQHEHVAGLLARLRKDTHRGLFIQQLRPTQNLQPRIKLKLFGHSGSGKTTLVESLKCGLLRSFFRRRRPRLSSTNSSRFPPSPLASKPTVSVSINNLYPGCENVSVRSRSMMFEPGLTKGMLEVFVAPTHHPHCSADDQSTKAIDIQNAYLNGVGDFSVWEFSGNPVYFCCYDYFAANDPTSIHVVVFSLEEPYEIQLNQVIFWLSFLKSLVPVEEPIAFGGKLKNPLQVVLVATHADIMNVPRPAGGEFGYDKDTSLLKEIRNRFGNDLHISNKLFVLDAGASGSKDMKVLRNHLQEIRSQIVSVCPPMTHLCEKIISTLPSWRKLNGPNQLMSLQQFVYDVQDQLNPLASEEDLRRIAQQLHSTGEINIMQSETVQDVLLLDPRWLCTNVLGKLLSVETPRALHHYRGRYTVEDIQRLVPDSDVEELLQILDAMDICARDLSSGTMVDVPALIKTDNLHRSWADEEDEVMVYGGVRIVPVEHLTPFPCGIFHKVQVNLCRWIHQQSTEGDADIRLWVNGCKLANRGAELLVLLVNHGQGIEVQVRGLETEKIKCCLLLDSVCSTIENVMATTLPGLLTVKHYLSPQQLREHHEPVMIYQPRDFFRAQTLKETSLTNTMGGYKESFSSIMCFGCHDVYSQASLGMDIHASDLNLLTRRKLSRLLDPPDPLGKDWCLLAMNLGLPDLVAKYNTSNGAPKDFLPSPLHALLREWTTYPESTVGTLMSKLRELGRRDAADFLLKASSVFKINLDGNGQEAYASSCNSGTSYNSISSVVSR
Chain of LATS2 (human) (Q9NRM7 whole entry, looked up): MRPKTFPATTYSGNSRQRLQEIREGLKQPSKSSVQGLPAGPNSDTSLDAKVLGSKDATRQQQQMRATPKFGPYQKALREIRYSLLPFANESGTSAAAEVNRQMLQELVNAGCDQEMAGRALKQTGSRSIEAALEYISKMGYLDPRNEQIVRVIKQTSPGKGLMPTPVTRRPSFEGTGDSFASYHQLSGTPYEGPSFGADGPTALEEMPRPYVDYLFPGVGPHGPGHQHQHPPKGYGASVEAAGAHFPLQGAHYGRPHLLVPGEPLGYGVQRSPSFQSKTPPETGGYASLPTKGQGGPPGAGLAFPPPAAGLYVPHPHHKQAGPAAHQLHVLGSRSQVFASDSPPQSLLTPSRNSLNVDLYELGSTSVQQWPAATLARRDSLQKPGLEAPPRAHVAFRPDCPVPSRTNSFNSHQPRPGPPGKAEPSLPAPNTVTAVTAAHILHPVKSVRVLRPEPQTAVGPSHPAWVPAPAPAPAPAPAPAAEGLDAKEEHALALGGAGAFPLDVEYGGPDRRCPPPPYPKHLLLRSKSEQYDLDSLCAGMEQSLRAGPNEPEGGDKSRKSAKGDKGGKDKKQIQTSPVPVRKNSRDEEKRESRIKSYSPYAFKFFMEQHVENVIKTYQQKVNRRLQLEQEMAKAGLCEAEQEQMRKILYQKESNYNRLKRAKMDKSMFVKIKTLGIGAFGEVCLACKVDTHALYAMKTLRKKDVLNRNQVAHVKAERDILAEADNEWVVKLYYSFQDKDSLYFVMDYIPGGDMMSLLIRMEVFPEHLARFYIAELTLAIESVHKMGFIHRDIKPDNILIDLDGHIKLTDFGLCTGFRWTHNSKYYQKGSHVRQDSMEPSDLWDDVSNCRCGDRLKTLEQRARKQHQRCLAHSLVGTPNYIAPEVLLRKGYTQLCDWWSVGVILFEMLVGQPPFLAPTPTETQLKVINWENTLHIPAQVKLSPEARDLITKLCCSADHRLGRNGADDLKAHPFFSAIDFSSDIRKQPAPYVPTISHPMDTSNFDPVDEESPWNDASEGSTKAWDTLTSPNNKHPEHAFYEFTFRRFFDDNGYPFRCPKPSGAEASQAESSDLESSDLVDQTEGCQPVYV
Chain of PAK1 (human) (Q13153 whole entry, looked up): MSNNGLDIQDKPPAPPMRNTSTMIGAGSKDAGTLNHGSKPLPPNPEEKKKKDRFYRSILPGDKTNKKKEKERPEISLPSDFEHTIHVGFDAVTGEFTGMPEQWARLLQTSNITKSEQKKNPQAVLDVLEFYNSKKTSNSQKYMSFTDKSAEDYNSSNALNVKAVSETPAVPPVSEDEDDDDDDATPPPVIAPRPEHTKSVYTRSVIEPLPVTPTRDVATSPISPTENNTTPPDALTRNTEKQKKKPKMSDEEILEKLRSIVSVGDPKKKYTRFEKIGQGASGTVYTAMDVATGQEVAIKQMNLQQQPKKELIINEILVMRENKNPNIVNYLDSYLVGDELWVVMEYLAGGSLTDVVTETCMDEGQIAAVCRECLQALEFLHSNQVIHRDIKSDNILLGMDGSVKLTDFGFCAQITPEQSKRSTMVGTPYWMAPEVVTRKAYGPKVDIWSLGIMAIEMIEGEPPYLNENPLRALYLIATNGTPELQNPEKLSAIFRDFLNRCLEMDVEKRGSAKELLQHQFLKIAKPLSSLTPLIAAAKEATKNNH
Chain of STK25 (human) (O00506 whole entry, looked up): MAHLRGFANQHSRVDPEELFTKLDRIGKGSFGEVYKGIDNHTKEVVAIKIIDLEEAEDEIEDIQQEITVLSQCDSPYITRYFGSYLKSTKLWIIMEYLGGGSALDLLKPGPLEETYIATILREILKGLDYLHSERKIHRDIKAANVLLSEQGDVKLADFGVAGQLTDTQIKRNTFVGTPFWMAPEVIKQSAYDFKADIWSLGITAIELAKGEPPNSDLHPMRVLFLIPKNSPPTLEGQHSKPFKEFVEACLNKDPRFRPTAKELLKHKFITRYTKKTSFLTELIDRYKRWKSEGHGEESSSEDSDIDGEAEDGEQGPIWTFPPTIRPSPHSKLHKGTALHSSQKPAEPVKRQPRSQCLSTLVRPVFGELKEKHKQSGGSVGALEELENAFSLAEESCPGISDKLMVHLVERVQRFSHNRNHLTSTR
Chain of MAPK9 (human) (P45984 whole entry, looked up): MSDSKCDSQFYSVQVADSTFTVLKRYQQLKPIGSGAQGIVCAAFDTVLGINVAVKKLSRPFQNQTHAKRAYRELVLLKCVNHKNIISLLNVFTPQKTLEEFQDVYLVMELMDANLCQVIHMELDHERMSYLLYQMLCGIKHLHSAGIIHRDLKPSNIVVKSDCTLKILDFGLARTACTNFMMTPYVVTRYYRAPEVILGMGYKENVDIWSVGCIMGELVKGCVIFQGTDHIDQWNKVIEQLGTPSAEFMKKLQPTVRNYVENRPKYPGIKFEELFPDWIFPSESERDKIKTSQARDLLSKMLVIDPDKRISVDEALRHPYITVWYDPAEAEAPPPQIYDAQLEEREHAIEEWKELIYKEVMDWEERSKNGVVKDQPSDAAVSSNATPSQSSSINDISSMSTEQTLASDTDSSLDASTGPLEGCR
Chain of MAPK1 (human) (P28482 whole entry, looked up): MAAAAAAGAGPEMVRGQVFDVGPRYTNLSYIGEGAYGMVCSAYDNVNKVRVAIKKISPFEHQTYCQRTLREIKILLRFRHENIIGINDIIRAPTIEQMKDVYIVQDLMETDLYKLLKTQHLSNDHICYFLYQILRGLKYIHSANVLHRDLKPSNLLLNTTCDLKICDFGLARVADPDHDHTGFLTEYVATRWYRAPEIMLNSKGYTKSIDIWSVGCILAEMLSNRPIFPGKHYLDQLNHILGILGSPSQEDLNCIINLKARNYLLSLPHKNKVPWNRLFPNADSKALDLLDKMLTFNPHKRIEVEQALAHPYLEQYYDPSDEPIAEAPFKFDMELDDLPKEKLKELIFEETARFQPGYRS

SMILES	kinase still bound, per cent of control [1] [%]	kinase still bound, per cent of control [2] [%]	kinase still bound, per cent of control [3] [%]	kinase still bound, per cent of control [4] [%]	kinase still bound, per cent of control [5] [%]	kinase still bound, per cent of control [6] [%]	kinase still bound, per cent of control [7] [%]	kinase still bound, per cent of control [8] [%]	kinase still bound, per cent of control [9] [%]	kinase still bound, per cent of control [10] [%]	kinase still bound, per cent of control [11] [%]	kinase still bound, per cent of control [12] [%]	kinase still bound, per cent of control [13] [%]	kinase still bound, per cent of control [14] [%]	kinase still bound, per cent of control [15] [%]	kinase still bound, per cent of control [16] [%]	kinase still bound, per cent of control [17] [%]	kinase still bound, per cent of control [18] [%]	kinase still bound, per cent of control [19] [%]	kinase still bound, per cent of control [20] [%]	also measured
CC[C@@H]1C(=O)N(C)c2cnc(Nc3ccc(C(=O)NC4CCN(C)CC4)cc3OC)nc2N1C1CCCC1	100	16	32	100	100	100	100	100	100	100	100	100	100	100	100	8.3	5.4	100	100	100	kinase still bound, per cent of control [21]: 100%; kinase still bound, per cent of control [22]: 100%; kinase still bound, per cent of control [23]: 100%; kinase still bound, per cent of control [24]: 100%; kinase still bound, per cent of control [25]: 100%; kinase still bound, per cent of control [26]: 100%; kinase still bound, per cent of control [27]: 100%; kinase still bound, per cent of control [28]: 100%; kinase still bound, per cent of control [29]: 100%; kinase still bound, per cent of control [30]: 100%; kinase still bound, per cent of control [31]: 100%; kinase still bound, per cent of control [32]: 7%; kinase still bound, per cent of control [33]: 100%; kinase still bound, per cent of control [34]: 100%; kinase still bound, per cent of control [35]: 24%; kinase still bound, per cent of control [36]: 20%; kinase still bound, per cent of control [37]: 100%
Cn1c(=O)n(-c2ccc(C(C)(C)C#N)cc2)c2c3cc(-c4cnc5ccccc5c4)ccc3ncc21	100	100	100	100	100	100	100	100	100	100	100	100	100	100	100	100	100	100	100	100	kinase still bound, per cent of control [38]: 100%; kinase still bound, per cent of control [21]: 100%; kinase still bound, per cent of control [22]: 100%; kinase still bound, per cent of control [39]: 100%; kinase still bound, per cent of control [23]: 100%; kinase still bound, per cent of control [24]: 100%; kinase still bound, per cent of control [25]: 100%; kinase still bound, per cent of control [26]: 100%; kinase still bound, per cent of control [27]: 100%; kinase still bound, per cent of control [28]: 100%; kinase still bound, per cent of control [29]: 100%; kinase still bound, per cent of control [30]: 100%; kinase still bound, per cent of control [31]: 100%; kinase still bound, per cent of control [32]: 100%; kinase still bound, per cent of control [33]: 16%; kinase still bound, per cent of control [34]: 100%; kinase still bound, per cent of control [35]: 33%; kinase still bound, per cent of control [36]: 100%; kinase still bound, per cent of control [37]: 100%
CCOc1cc2ncc(C#N)c(Nc3ccc(OCc4ccccn4)c(Cl)c3)c2cc1NC(=O)/C=C/CN(C)C	85	87	100	100	6.8	100	74	13	77	95	16	100	100	79	96	97	98	100	86	100	kinase still bound, per cent of control [21]: 0%; kinase still bound, per cent of control [22]: 95%; kinase still bound, per cent of control [23]: 100%; kinase still bound, per cent of control [24]: 68%; kinase still bound, per cent of control [25]: 94%; kinase still bound, per cent of control [26]: 52%; kinase still bound, per cent of control [27]: 100%; kinase still bound, per cent of control [28]: 95%; kinase still bound, per cent of control [29]: 97%; kinase still bound, per cent of control [30]: 100%; kinase still bound, per cent of control [31]: 100%; kinase still bound, per cent of control [32]: 74%; kinase still bound, per cent of control [33]: 83%; kinase still bound, per cent of control [34]: 6.2%; kinase still bound, per cent of control [35]: 100%; kinase still bound, per cent of control [36]: 90%; kinase still bound, per cent of control [37]: 73%; kinase still bound, per cent of control [40]: 89%
